Six molecules from patent US7872025B2 (Bridge Pharma, Inc., priority 1999, dated 2011) can be followed below.

Entries after “also recorded” stand apart in the source; their conditions may differ.

In series [1] the test system is mice. The experiment in a line: Sedative side effects (physostigmine-induced lethality test). The conditions noted are these: mouse, in vivo. As for the experimental part:
The physostigmine-induced lethality test is being used in the present studies. […] In the present study, test compounds are administered orally 60 minutes prior to physostigmine. The numbers of survivors are counted 30 minutes after physostigmine administration.

Series [2] has as its target histamine H-2 (Homo sapiens, UniProt P25021). The experiment in a line: Histamine H-2 antagonism (no method given).
In series [3] the target is T1, histamine H1-receptor (Cavia porcellus, UniProt P31389).
T1 construct: from tissue; host or cells: guinea pig cerebellum membranes
In words: Binding to histaminergic receptors (3H-pyrilamine binding). Details: species or system guinea pig. As for the experimental part: Briefly, membranes from guinea pig cerebellum are incubated with ^3H-pyrilamine and varying concentrations of the test compound(s). The specific binding of the radioactive ligand to the receptor is defined as the difference between total binding and nonspecific binding, determined in the presence of an excess of unlabelled ligand. The results are expressed as percentage of specific binding in the presence of compounds. […] These parameters are obtained by Hill equation curve fitting using Sigmaplot™ software.

In series [4] the test system is inflammation. The experiment in a line: Anti-inflammatory effects (bronchial eosinophil accumulation; mouse ear croton oil inflammation). As to conditions: in vivo. The method, then:
Inhibition of eosinophil accumulation in lung is determined in sensitized guinea pigs (400 to 600 grams) following intraperitoneal injection of an allergen such as for example PAF (platelet aggregating factor) or bovine serum albumin. At a predetermined time thereafter, the animals are killed with a barbiturate. The trachea is exposed and cannulated. 6×10 ml aliquots of buffered modified Tyrode's solution (composition: NaHCO3 11.9, NaCl 136.9, KCl 2.7, Na2HPO4 0.4, glucose 5.6, EDTA 19.8, gelatin 0.1% w/v; pH 7.4) are introduced successively and aspirated by gentle compression of the lungs. Total fluid recovery normally exceeds 80%. Cell suspensions are concentrated by low speed centrifugation (200 G for 10 min) and the resulting cell pellet is resuspended in 1 ml modified Tyrode's solution. Total cell counts are made by diluting 10 μl of cell suspension in 90 μl of Turk's fluid. Differential cell counts are made from smears fixed in methanol (100%) and stained in Leishman stain. A total of at least 500 cells per smear are counted at 1000 fold magnification, in order to differentiate cell types. Drugs are administered as sustained subcutaneous infusions from an implanted Alza minipump (Alzet 2001 or similar) or by repeated oral or repeated parenteral injections.
Dermal antiinflammatory effects are tested using the mouse ear croton oil inflammation method. This test method is based on Tarrida, J. et al., Meth. Find. Exp. Clin. Pharmacol. (1996) 18(4):233-234 and Blazzo, et al., Prostaglandins (1995) 50:161-168. In short, male mice (25-30 g) are treated with 5 ml/kg of a 2 mg/ml solution of each test compound in physiological saline by intraperitoneal injection. Thirty minutes after injection, croton oil (0, 20 μl of 1.0% croton oil in acetone) or acetone (control) is topically applied to both ears of each mouse. Animals are restrained during croton oil or acetone application and then released into a cage. Before and at predetermined time intervals following croton oil or acetone application, groups of animals are anesthetized with halothane and euthanized by cervical dislocation. […]

Series [5] concerns bronchial or other smooth muscle tissues. In words: Antihistaminic effects in vitro (histamine contractions of smooth muscle strips). Details: species or system guinea pigs. The conditions noted are these: listed as racemic norketotifen. As for the experimental part: Strips of bronchial or other smooth muscle tissues are removed from the body of male guinea pigs weighing 400-600 g. The tissues are suspended in an oxygenated buffer of the composition (mM): NaCl, 133; KCl, 4.7; CaCl2, 2.5; MgSO4, 0.6; NaH2PO4, 1.3; NaHCO3, 16.3; and glucose, 7.7, or in a solution of a similar composition. The solution is maintained at 37.5 C. Contractions are recorded with isometric transducers (Model FT-10) on a Grass polygraph.
In order to assess the viability of each tissue and to serve as a frame of reference, contractions of each strip of tissue are recorded initially in response to exposure to an oxygenated buffer in which the NaCl is replaced by KCl to yield a concentration of 137.7 mM KCl. This is followed by return to the standard oxygenated buffer, and then by exposures to progressively increasing concentrations of histamine, with separate exposures to each concentration only until the peak response has been recorded. Then, leaving one tissue strip untreated, the remaining strips each are exposed for a predetermined time interval to one concentration of an antagonist. Finally, the responses to increasing concentrations of histamine followed by exposure to 137.7 mM KCl are recorded a second time.

T1 sequence (P31389 whole entry): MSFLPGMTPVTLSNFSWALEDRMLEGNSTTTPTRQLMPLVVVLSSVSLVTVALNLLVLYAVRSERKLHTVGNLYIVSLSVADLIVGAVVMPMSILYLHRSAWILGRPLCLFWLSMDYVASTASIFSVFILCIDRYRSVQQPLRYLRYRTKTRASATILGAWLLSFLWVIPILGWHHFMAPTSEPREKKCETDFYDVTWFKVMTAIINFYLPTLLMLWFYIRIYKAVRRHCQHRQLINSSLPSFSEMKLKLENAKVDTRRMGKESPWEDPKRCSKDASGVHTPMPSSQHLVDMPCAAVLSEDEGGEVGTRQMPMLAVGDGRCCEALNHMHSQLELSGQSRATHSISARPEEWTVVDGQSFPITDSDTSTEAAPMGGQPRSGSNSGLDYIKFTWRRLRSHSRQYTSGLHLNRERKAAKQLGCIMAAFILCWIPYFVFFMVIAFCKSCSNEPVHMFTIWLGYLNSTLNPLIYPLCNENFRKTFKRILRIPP
histamine H-2, sequence (P25021 whole entry): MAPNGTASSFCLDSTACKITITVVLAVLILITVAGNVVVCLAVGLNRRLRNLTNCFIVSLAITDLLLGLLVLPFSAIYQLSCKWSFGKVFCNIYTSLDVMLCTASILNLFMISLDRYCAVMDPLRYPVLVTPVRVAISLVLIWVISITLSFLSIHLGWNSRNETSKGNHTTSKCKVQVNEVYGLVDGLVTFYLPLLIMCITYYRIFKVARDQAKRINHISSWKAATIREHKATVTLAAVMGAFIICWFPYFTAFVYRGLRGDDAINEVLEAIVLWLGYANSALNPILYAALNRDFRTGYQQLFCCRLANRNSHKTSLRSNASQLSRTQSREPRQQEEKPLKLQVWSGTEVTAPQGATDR

Regarding `CN1CCC(=C2c3ccccc3CC(=O)c3sccc32)CC1` [S-isomer of ketotifen], the sedative side effects entry in series [1] is reported as “not causing the severe sedative side effects of ketotifen”.
`CN1CCC(=C2c3ccccc3CC(=O)c3sccc32)CC1` (racemic) [ketotifen, 4-(1-methyl-4-piperidyline)-4H-benzo(4,5) cyclohepta-(1,2-b) thiophene-10-one, reference compound]: the “histamine H-2 antagonism” value in series [2] is recorded as “varying degree of histamine H-2 antagonism”. Besides, the sedative side effects result in series [1] was “severe and dose-limiting sedative activity”.
On to `CN1CCC(=C2c3ccccc3CC(O)c3sccc32)CC1` (stereo not drawn) [10-hydroxy-ketotifen], for which the “histamine H-1 receptor antagonism / blockade” value in series [3] was “block histamine H-1 receptors”. Further, in series [4], the anti-inflammatory effect entry is reported as “inhibit inflammation”. Besides, the sedative side effects entry in series [1] is given as “significantly less sedation than ketotifen”.
As to `CN1CCC(=C2c3ccccc3CC(=O)c3sccc32)CC1` [R(+)-ketotifen], in series [1], the sedative side effects result was “almost all the sedative side effects were found to reside in R(+)-ketotifen”.
Take `O=C1Cc2ccccc2C(=C2CCNCC2)c2ccsc21` (racemic) [nor-ketotifen]: the “histamine H-1 receptor antagonism / blockade” value in series [3] is given as “histamine H-1 antagonists”. In addition, the “histamine H-2 antagonism” value in series [2] is recorded as “varying degree of histamine H-2 antagonism”. Also, the antihistaminic effects entry in series [5] was “qualitatively similar to the antihistaminic effects of racemic ketotifen; also recorded: potent anti-inflammatory and anti-histaminic properties”. Besides, in series [4], the anti-inflammatory effect entry is “potent anti-inflammatory and anti-histaminic properties”. In addition, the sedative side effects entry in series [1] is recorded as “little or no sedative side effect”.
As for `OC1Cc2ccccc2C(=C2CCNCC2)c2ccsc21` (stereo not drawn) [10-hydroxy-norketotifen], in series [3], the “histamine H-1 receptor antagonism / blockade” value is listed as “block histamine H-1 receptors”. In addition, the anti-inflammatory effect result in series [4] is recorded as “inhibit inflammation”. Further, the sedative side effects result in series [1] is “significantly less sedation than ketotifen”.
